Experimental data from PubChem BioAssay AID743440 (Broad Institute, 2014).
The source made the active and inactive calls.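 How the source made its calls: active means AC50 for cell killing below 10 µM, with the signal falling as expected; inactive means the rest, including compounds acting in the opposite direction.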

test system: HepG2 viability, ATP luminescence (CellTiter-Glo), 72 h; assay: toxicity toward HepG2 liver cells – cell-based, plate reader, dry powder, set 11, cytotoxicity control, dose response (AID 743440); conditions: not given

Row | Structure (SMILES) | AC50
1 | COCCNC(=O)CSc1c2c(nc3ccc(Cl)cc13)CCCC2 | > 52 µM (inactive)
2 | CCN(CC)CCCNC(=O)c1ccc(OCC(=O)Nc2ccccc2C(F)(F)F)c(OC)c1 | > 52 µM (inactive)
3 | O=C(COc1ccc(C(=O)NC2CCCCC2)cc1)Nc1cccc(C(F)(F)F)c1 | > 52 µM (inactive)
4 | COc1cc(C(=O)NCCCN(C)C)ccc1OCC(=O)Nc1cccc(C(F)(F)F)c1 | > 52 µM (inactive)
5 | CN(C(=O)COc1ccccc1C(=O)NCCc1ccccc1)c1ccccc1 | > 52 µM (inactive)
6 | O=C(CSc1c2c(nc3ccc(Cl)cc13)CCCC2)NCc1ccc2c(c1)OCO2 | > 52 µM (inactive)
7 | O=C(CSc1c2c(nc3ccc(Cl)cc13)CCCC2)Nc1ccc(Cl)cc1 | > 52 µM (inactive)
8 | O=C(CSc1c2c(nc3ccc(Cl)cc13)CCCC2)N1CCN(Cc2ccccc2)CC1 | > 52 µM (inactive)
9 | O=C(CSc1c2c(nc3ccccc13)CCCC2)NCc1ccco1 | > 52 µM (inactive)
10 | O=C(CSc1c2c(nc3ccc(Cl)cc13)CCCC2)N1CCOCC1 | > 52 µM (inactive)
11 | O=C(CSc1c2c(nc3cc(Cl)ccc13)CCCC2)N(Cc1ccco1)C1CCCC1 | > 52 µM (inactive)
12 | CCN1CCCC1CNC(=O)CSc1c2c(nc3ccc(Cl)cc13)CCCC2 (configuration not stated) | 16.1 µM
13 | O=C(CSc1c2c(nc3ccc(Cl)cc13)CCCC2)NC1CCN(Cc2ccccc2)CC1 | 26.3 µM
14 | Cc1ccc(CNC(=O)CSc2c3c(nc4ccc(Cl)cc24)CCCC3)o1 | > 52 µM (inactive)
15 | CC1(C)CC(NC(=O)c2ccc(OCC(=O)Nc3cccc(C(F)(F)F)c3)cc2)CC(C)(C)N1 | > 52 µM (inactive)
16 | CN(CCNC(=O)CSc1c2c(nc3ccc(Cl)cc13)CCCC2)Cc1ccccc1 | > 52 µM (inactive)
17 | O=C(CSc1c2c(nc3ccc(Cl)cc13)CCCC2)NC1CC1 | > 52 µM (inactive)
18 | Cc1cccc(NC(=O)CSc2c3c(nc4ccc(Cl)cc24)CCCC3)n1 | 26.2 µM
19 | Cc1ccc(CNC(=O)CSc2c3c(nc4ccc(Cl)cc24)CCCC3)cc1 | > 52 µM (inactive)
20 | CCCCOc1ccc(NC(=O)COc2ccccc2C(=O)NCCOc2ccccc2)cc1 | > 52 µM (inactive)
21 | CCCNC(=O)CSc1c2c(nc3ccc(Cl)cc13)CCCC2 | > 52 µM (inactive)
22 | COc1cc(CNCCCN2CCOCC2)ccc1OCC(=O)Nc1cccc(C(F)(F)F)c1 | > 24 µM (inactive)
23 | CC(Sc1c2c(nc3ccc(Cl)cc13)CCCC2)C(=O)NCc1ccco1 (configuration not stated) | > 52 µM (inactive)
24 | COc1ccc(CNC(=O)CSc2c3c(nc4ccc(Cl)cc24)CCCC3)cc1 | > 52 µM (inactive)
25 | O=C(COc1ccccc1C(=O)NCCOc1ccc(Cl)cc1)Nc1cccc(Cl)c1 | > 52 µM (inactive)

test system: not listed separately; assay: as above; conditions: HepG2 viability, ATP luminescence (CellTiter-Glo), 72 h; at 12 µM (top of the series)

Row | Structure (SMILES) | activity change, negative = cytotoxicity
26 | O=C(CSc1c2c(nc3ccc(Cl)cc13)CCCC2)NCc1cccs1 | -11.9% (inactive)

same assay, conditions: HepG2 viability, ATP luminescence (CellTiter-Glo), 72 h; at 26 µM (top of the series)

Row | Structure (SMILES) | activity change, negative = cytotoxicity
27 | O=C(COc1ccc(C(=O)N2CCN(C(=O)C3CC3)CC2)cc1)Nc1cccc(C(F)(F)F)c1 | -22.9% (inactive)
28 | CN(C(=O)COc1ccc(Cl)cc1C(N)=O)c1ccccc1 | 6.24% (inactive)
29 | COc1ccc(OCCNC(=O)c2ccccc2OCC(=O)Nc2ccc(NC(C)=O)cc2)cc1 | -7.48% (inactive)
30 | COc1ccc(N(Cc2cccs2)C(=O)COc2ccccc2C(=O)Nc2ccccc2)cc1 | -1.88% (inactive)
31 | O=C(CSc1cccc2cccnc12)NCc1ccco1 | 9.13% (inactive)
32 | Cn1cc(SCC(=O)NCc2ccco2)c2ccccc21 | -5.75% (inactive)
33 | O=C(COc1ccc(C(=O)N2CCC2)cc1)Nc1cccc(C(F)(F)F)c1 | -3.29% (inactive)
34 | O=C(O)CSc1c2c(nc3cc(C(=O)NCc4cccs4)ccc13)CCCC2 | -3.5% (inactive)
35 | CCOC(=O)C1CCN(C(=O)c2ccc(OCC(=O)Nc3ccc(OCC)cc3)c(OC)c2)CC1 | -2.93% (inactive)
36 | O=C(COc1ccc(C(=O)NCC2CCCO2)cc1)Nc1cccc(C(F)(F)F)c1 (configuration not stated) | -9.73% (inactive)
37 | CCN(CC)C(=O)CSc1c2c(nc3ccc(Cl)cc13)CCCC2 | -8.05% (inactive)
38 | CCOc1ccc(NC(=O)COc2ccc(C(=O)N3CCC(C(N)=O)CC3)cc2OC)cc1 | -12.6% (inactive)
39 | O=C(COc1ccccc1C(=O)NCc1ccccc1)Nc1ccccc1 | -9.2% (inactive)
40 | O=C(CSc1c2c(nc3ccc(Cl)cc13)CCCC2)N1CCNC1=O | -15.2% (inactive)
41 | CCOC(=O)C1CCN(C(=O)c2ccc(OCC(=O)N3CCOCC3)c(OC)c2)CC1 | -12.3% (inactive)
42 | O=C(CSc1c2c(nc3ccc(Cl)cc13)CCCC2)N1CCCCC1 | -19.8% (inactive)
43 | Cn1c(=O)cc(SCC(=O)NCc2ccco2)c2ccccc21 | 2.16% (inactive)
44 | CN(C(=O)COc1ccccc1C(N)=O)c1ccccc1 | 2.01% (inactive)
45 | Cc1ccc2nc(Cl)cc(SCC(=O)NCc3ccco3)c2c1 | -16.7% (inactive)
46 | CN(C(=O)COc1ccccc1C(=O)Nc1ccccc1)c1ccccc1 | -11.2% (inactive)
47 | CN(CCOc1ccccc1)C(=O)c1ccc(OCC(=O)Nc2cccc(C(F)(F)F)c2)cc1 | -1.92% (inactive)
48 | COC(=O)CCCN(C)C(=O)c1ccc(OCC(=O)Nc2cccc(OC)c2)cc1 | -8.54% (inactive)
49 | O=C(CSc1ccc2ccccc2n1)NCc1ccco1 | -2.89% (inactive)
50 | CN(C)c1ccc(NC(=O)COc2ccccc2C(=O)N2CCOCC2)cc1 | 8.33% (inactive)
51 | Cc1ccc(NC(=O)COc2ccccc2C(=O)NCCN(C)C)cc1 | -14.7% (inactive)
52 | NC(=O)C1CCN(C(=O)c2ccc(OCC(=O)Nc3cccc(C(F)(F)F)c3)cc2)CC1 | -3.5% (inactive)
